Laboratory results published in patent US10252987B2, “Type of antiviral compound” (Institute of Medicinal Biotechnology, Chinese Academy of …, priority 2015, dated 2019).

Test system: HCV
Experiment: anti-HCV activity assay in cell culture (HCV RNA by one-step quantitative RT-PCR)
Assay type: cell-based
Settings: compound at 10 μmol/L, Huh7.5 cells infected with HCV virus particles, cultured 96 hrs, HCV RNA in cells vs virus control group; for inhibition at 10 µM: Hepatitis C virus, Huh7.5, 96 h, read-out: percent inhibition (%)
Experimental: The assay results of anti-HCV activity of the compound synthesized according to the present invention in cell culture are shown in Table 1, wherein the molecular weight is calculated by ChemBioDraw 12.0 software from the molecular structure of each compound.
100 μL Huh7.5 cells were seeded in 96-well cell culture plate to 1×10^5/mL density, cultured in an incubator at 37° C. under the condition of 5% CO2 and saturated humidity for 6 hrs. Huh7.5 cells were then infected by viral solution containing HCV virus particles, and solutions of compound of the present invention at a concentration of 10 μmol/L liquid were added respectively, cultured for further 96 hrs, and then total RNA was extracted from the cells. Amount of HCV RNA in cells was determined by one-step quantitative RT-PCR, and compared to RNA levels of the virus control group to calculate the inhibition rate of compounds on HCV.

Row | SMILES | percent inhibition (%) | inhibition at 10 µM [%]
1 | CN(C)CCCN(C)c1ccc(C#N)c(CN2CCN(c3ccc(C4CCCCC4)cc3)CC2)c1 [VI-32, 4-(N,N′,N′-trimethyl1,3-propanediamin-1-yl)-2-(4-p-cyclohexylphenylpiperazin-1-yl)methylbenzonitrile] | 80 | 
2 | CN(C)CNc1ccc(C#N)c(CN2CCN(c3ccc(C(C)(C)C)cc3)CC2)c1 [VI-33, 2-(4-(4-tert-butylphenyl)piperazin-1-yl)methyl-4-((N,N-dimethylamino)methyl)amino-benzonitrile] |  | 90
3 | CN1CCN(c2ccc(C#N)c(CN3CCN(c4ccc(Br)cc4)CC3)c2)CC1 [VI-34, 2-(4-(4-bromophenyl)piperazin-1-yl)methyl-4-(4-methylpiperazin-1-yl)benzonitrile] |  | 91
4 | CN(C)CCN(C)c1ccc(C#N)c(CN2CCN(c3ccc(Cl)cc3)CC2)c1 [VI-35, 4-(N,N′,N′-trimethyl-1,2-ethylenediamin-1-yl)-2-(4-p-chlorophenylpiperazin-1-yl)methylbenzonitrile] | 99 | 
5 | Cc1ccc(N2CCN(Cc3cc(N(C)CN4CCCCC4)ccc3C#N)CC2)cc1 [VI-36, 4-((methyl)((piperidin-1-yl)-methyl)amino)-2-(4-p-methylphenylpiperazin-1-yl)methylbenzonitrile] |  | 91
6 | Cc1ccc(N2CCN(Cc3cc(N(C)CN4CCCC4)ccc3C#N)CC2)cc1 [VI-37, 4-((methyl)((pyrrolidin-1-yl)-methyl)amino)-2-(4-p-methylphenylpiperazin-1-yl)methylbenzonitrile] |  | 87
7 | CN1CCN(c2ccc(C#N)c(CN3CCC(c4ccc(C(C)(C)C)cc4)CC3)c2)CC1 [VI-38, 4-(4-methylpiperazin-1-yl)-2-(4-(4-tert-butylphenyl)piperidin-1-yl)methylbenzonitrile] |  | 80
8 | CN(C)CCN(C)c1ccc(C#N)c(CN2CCC(c3ccc(Cl)cc3)CC2)c1 [VI-39, 4-(N,N′,N′-trimethyl-1,2-ethylenediamin-1-yl)-2-(4-p-chlorophenylpiperidin-1-yl)methylbenzonitrile] | 88 | 
9 | CN(C)C1CCN(c2ccc(C#N)c(CN3CCN(c4ccc(Cl)cc4)CC3)c2)C1 (stereo not drawn) [VI-44, 4-((3-dimethylamino)pyrrolidin-1-yl)-2-(4-p-chlorophenylpiperazin-1-yl)methylbenzonitrile] | 89 | 
10 | COc1ccc(N2CCN(Cc3cc(N(C)CCN(C)C)ccc3C#N)CC2)cc1OC [VI-45, 4-(N,N′,N′-trimethyl-1,2-ethylenediamin-1-yl)-2-(3,4-dimethoxyphenylpiperazin-1-yl)methylbenzonitrile] | 92 | 
11 | COc1ccc(N2CCN(Cc3cc(NC(C)CN4CCCC4)ccc3C#N)CC2)cc1 (stereo not drawn) [VI-46, 4-(1-(pyrrolidin-1-yl)propyl-2-yl)amino-2-(4-p-methoxyphenylpiperazin-1-yl)methylbenzonitrile] | 95 | 
12 | CN(C)CCN(C)c1ccc(C#N)c(CN2CCN(c3ccc(OC(F)(F)F)cc3)CC2)c1 [VI-47, 4-(N,N′,N′-trimethyl-1,2-ethylenediamin-1-yl)-2-(4-trifluoromethoxyphenylpiperazin-1-yl)methylbenzonitrile] | 93 | 
